Series [1] concerns Human Influenza A Virus H1N1. To be noted: virus mixed with drug 1 hour, 2-128 μg/mL; Vero cells; viral RNA.
The subject of series [2] is person two. Briefly: Ulcerative colitis, patient case. It is filed as in vivo, human. To be noted: oral 5-aminosalicylic acid for 3 days. The source says: person two was diagnosed with an acute attack of ulcerative colitis. […] After this, they were given the same Compound C gel as described in Example 41 above, at the same dose, 3 times over the first two days. The frequent with which they had to go to the toilet reduced to 3 to 4 times a day.

The nature of series [3]: in vivo. The settings on record: SD, rat.
Protocol: The rats were treated by administering test samples.
The rats were anesthetized by 2% isoflurane inhalation. The rats were placed in the supine position, the rectum end stool was extruded and 75% alcohol cotton ball was used to disinfect the anal periphery skin area.
A 2 mL syringe was used to draw back the air bag cavity to ensure that there was no air in the air bag after water filling. The catheter (2-WAY 8Ch/Fr3-5 mm) was inserted into the rats anus at a depth of about 3 cm (2 cm length from the end of the balloon; the tip of the catheter was cut below the position of the urethral catheter tip, and shortened as much as possible while maintaining the integrity of the air cavity. The guide wire was removed, the urethral catheter was sealed with neutral glass glue while ensuring smooth sealing end to reduce the damage to the rectal mucosa).
While the perianal skin was held to fix the catheter and the gavage needle, 1 mL of water was injected with a 2 mL syringe into the airbag cavity in order to expand it, and the needle was then quickly released to observe whether there was gel leakage.
After injection, adhesive tape was wrapped around the tail root to fix the catheter (the catheter was litigated about 3-5 cm from the anus, then cut off after ligation, and an adhesive tape was wrapped around the tail root for fixation. The fixation of the pressure-sensitive adhesive tape is based on the standard of non-looseness of the urinary catheter, which should not be too tight and cause discomfort for animals to bite. The catheter should be fixed by tape twice: the catheter should be knotted the first time, while the remaining catheter should be fixed at the end of the tail the second time. The 3 cm scale on the catheter should be at the anus, and the catheter should not be taken out when the knot is tied). The rats were put back into the cage after administration.
An anal plug was maintained in the rectum for 4 h to extend the retention time of the drug in the animal body. The anal plug dropped within 4 h after the drug was administered, and the approximate time period of the drop was recorded.
Blood samples were processed by coating all centrifuge tubes with EDTA-K2 and storing them either in a refrigerator (2-8° C.) or a cooler filled with ice, protected from light prior to use; the blood that was collected was transferred into the centrifuge tubes and stored in ice box protected from light after having been mixed manually by reversing the tubes at least 5 times. The samples were subsequently centrifuged at 1800 g for 10 minutes at 2 to 8° C. within 2 hours from blood collection. After the centrifugation, the collected plasma samples were transferred into newly labeled centrifuge tubes, aliquoted into two sets, and stored below −70° C. away from light.
AUC, Cmax, Tmax, and any other parameters as needed, were calculated using WinNonlin software. Microsoft Office Excel was used for data statistical analysis, including mean, standard deviation (SD), and coefficient of variation (CV), etc. The difference in pharmacokinetic parameters between the two groups was compared.
Series [4] concerns C57BL/6 mice. Briefly: Air pouch model (carrageenan-induced acute inflammation). It counts as in vivo. More on the design: key to Inflammation score / Edema score: 1 = mild, 2 = moderate, 3 = severe. The settings on record: dexamethasone 400 μg/mouse. Here is the method:
Healthy adult male C57BL/6 mice weighing between 20 and 30 g were supplied by Changzhou Cvens Experimental Animal Co. Ltd. Prior to any experiments being conducted, the mice were housed under standardized conditions (at a constant temperature or 22±2° C., with alternating 12-hour periods of light and darkness), and were fed on a standard mouse diet with water, for about a week. The mice were randomly divided into 9 groups as described in Table 4, with 7 mice in each group.
General anaesthesia was induced using intraperitoneal delivery of 3% chloral hydrate (Sinopharm Chemical Reagent Co., Ltd., Shanghai, China); 1 mL/10 g of body weight). The hair of the entire dorsum was shaved and depilated one day before sterile air injection.
Air pouches were produced by subcutaneous injection of sterile air (5 mL) into the intrascapular area of the mice. After three days, another injection of air (3 mL) was performed to maintain the pouches. In order to induce acute inflammation, three days after the second injection, animals received an injection of sterile carrageenan solution (CP Kelco, Taixing, Jiangsu Province, China; 1%, 0.5 mL; produced by adding 0.1 g of carrageenan powder into a beaker containing 10 mL of 0.9% saline solution and stirring). Mice were pre-treated with test samples or vehicle 1 hour before and 23 hours after the carrageenan injection into the subcutaneous air pouch. Animals were sacrificed 24 hours after the carrageenan injection.
Skin biopsies were taken from the air pouches. A part of the biopsy was fixed in formalin (produced by adding ultra-pure water to 50 mL of a 40% formaldehyde solution (Nanchang Rain Dew Experimental Equipment Co., Ltd., Nanchang, […] Provence, China) up to a total volume of 500 mL) and analyzed by histological embedding in paraffin wax, sectioning and staining.
The histological specimens were analyzed, and an inflammation score and an edema score were estimated. The inflammation scores were estimated by observing heamatoxylin and eosin (HE) stained slices under an optical microscope. Scores (between 1 to 3 points) were given according to the perceived inflammation level (e.g. in cases where only a small amount of inflammatory cells scattered in the area: 1 point was given (mild); in cases where many inflammatory cells were observed: 2 points were given (moderate); and, in cases with diffuse infiltration: 3 points were given (severe)). A similar scoring system was employed for edema levels (3 points for most severe and 1 point for mild) after overall observation.
After conducting some preliminary experiments to validate the model, an experiment was conducted in which mice were treated by administering test samples or vehicle in accordance with Table 4 below. Compound A and Compound B were dissolved in saline at concentrations indicated in Table 4 below (L=low dose, M=medium dose, H=high dose).
Compound A and Compound B were synthesized as described in Examples 8 and 7 above, respectively. The peptide powders were stored at −20° C. prior to use. Dexamethasone (Dex) was obtained from Shanghai Aladdin Bio-Chem Technology Co., Ltd., Shanghai, China.

Series [5] deals with SD rats. Briefly: Experimental gastric ulcer model (anhydrous alcohol). It is filed as in vivo. The settings on record: omeprazole 2 mg/mL, 4 mg/kg oral gavage once per day for 30 days. Here is the method:
SPF grade SD rats were used in this experiment, with 10 rats in each group. According to an evaluation method of health food for gastric ulcer issued by Chinese State Food and Drug Administration, the protective effect of Compound B on acute gastric ulcers induced by anhydrous alcohol was observed after continuous gavage for 30 days.
Omeprazole enteric-coated capsules (20 mg/capsule; Heilongjiang Norgas Pharmaceutical Co., Ltd., China) were opened and the powder was dissolved in water to make a 2 mg/mL solution. Compound B (see Example 7 above) powder was dissolved in water to make two solutions with concentrations of 0.25 mg/mL and 0.75 mg/mL. Administration volumes were […].
All drugs were administrated as shown in Table 13 by oral gavage for 30 consecutive days, once per day. The rats had free access to water. On the 30th day, rats were fasted for 24 hours after the last drug administration. On the 31st day, 1.0 mL/rat of absolute ethanol was given by gavage to each rat in all of the experimental groups except the control group.
1 hour later, all of the rats were sacrificed and dissected to expose the intact stomach, followed by ligation of the pylorus. 10% formaldehyde solution was administered into the stomach by perfusion and fixed for 20 minutes. The stomach was dissociated after fixation and cut open along the greater curvature. The stomach contents were washed off the lining with saline to reveal the gastric mucosa.
The length and width of gastric mucosal bleeding were measured with a Vernier calliper under a stereo microscope or by the naked eye.

Series [6] is described as follows: Pharmacokinetics of montelukast with and without sMAP. The settings on record: SD, rat, plasma, 0.2 mg.

Bridge positions count the residues as written; N and C are the ends. Square brackets hold non-standard residues; d marks the D form. Ends that are not written are not given here. I, II: the chains in the order shown. Dopa = N[C@@H](Cc1ccc(O)c(O)c1)C(=O)O; Hyp = O=C(O)[C@@H]1C[C@@H](O)CN1 A value given as a limit tells only on which side of the number the result lay.

Consider “I: AKPS[Dopa][Hyp]T[Dopa][Hyp]KKK / II: AKPS[Dopa][Hyp]T[Dopa][Hyp]KK / III: AKPS[Dopa][Hyp]T[Dopa][Hyp]K / IV: AKPS[Dopa][Hyp]T[Dopa][Hyp]K (amide I:11-IV:C, I:12-II:C, II:11-III:C) [Compound C, [(Ala-Lys-Pro-Ser-DOPA-Hyp-Thr-DOPA-Hyp-Lys)2-Lys]2-Lys]”, for which the “IC50 (virus inhibition rate)” value in series [1] was greater than 32 µg/mL.
One may read the AUC(0-t) as exposure summed from dosing to a finite time, without extrapolation to infinity. As usually defined, the Cmax is the peak of the concentration-time curve. As usually defined, the Tmax is the time at which the peak concentration occurs. In the case of `Nc1ccc(O)c(C(=O)O)c1` [Mesalazine, 5-aminosalicylic acid], in series [2], the “symptoms of ulcerative colitis” value is recorded as “symptoms did not change”. In series [3] (female), the AUC(0-t) is 38900 ng·h/mL, the highest level (Cmax) was 13800 ng/mL and the Tmax worked out at 1.83 h. Moreover, in series [3] (male), the AUC(0-t) was 56100 ng·h/mL, the concentration peaked (Cmax) at 17500 ng/mL and the Tmax was 1.67 h.
`C[C@@H]1C[C@H]2[C@@H]3CCC4=CC(=O)C=C[C@]4(C)[C@@]3(F)[C@@H](O)C[C@]2(C)[C@@]1(O)C(=O)CO` [Dex, Dexamethasone, reference compound]: the “Sum of the scores” value in series [4] was found to be 2.14. In series [4] (1 h before and 23 h after carrageenan, histology, score 1-3), this compound had an Inflammation score of 0.57. The Edema score in series [4] (histology, score 1-3) was 1.57.
For `COc1ccc2[nH]c([S+]([O-])Cc3ncc(C)c(OC)c3C)nc2c1` (centres unmarked) [Omeprazole, reference compound], the Damage score in series [5] is listed as 20.
Usually half-life stands for the time in which the quantity being followed falls by half. Take `CC(C)(O)c1ccccc1CC[C@@H](SCC1(CC(=O)O)CC1)c1cccc(/C=C/c2ccc3ccc(Cl)cc3n2)c1` [Montelukast, montelukast sodium]: in series [6] (female), the AUC(0-t) is 229 ng·h/mL, the concentration peaked (Cmax) at 156 ng/mL, the Tmax turned out to be 0.5 h and the half-life was 2.3 h. In addition, in series [6] (male), the AUC(0-t) was determined as 238 ng·h/mL, the Cmax amounted to 151 ng/mL, the Tmax came out at 0.5 h and the half-life was 1.8 h.

The values above are taken from patent US20230331792A1, “NEW MULTI-FUNCTIONAL OLIGOPEPTIDES” (ENLITISA (SHANGHAI) PHARMACEUTICAL CO., LTD., priority 2019, published 2023).
